Measurements taken from article PMC6821655, “Marine Archaeon Methanosarcina acetivorans Enhances Polyphosphate Metabolism Under Persistent Cadmium Stress” (Frontiers in Microbiology, 2019).

Target: T1, Ma-PPK (Methanosarcina acetivorans, UniProt Q8TUI6)
T1 construct: recombinant full-length, heterologously overexpressed and purified; gene product 2187 bp (about 728 residues), 81 kDa; tag and host only in supplement
Assay: polyphosphate synthesis, toluidine blue absorbance at […] nm
Type: biochemical
Settings: variable Mg-ATP; trimethylsilyl polyP; 37 °C; Km given as unchanged with or without 120 mM K+; read-out: KmATP

T1 sequence (Q8TUI6 entry or part of it): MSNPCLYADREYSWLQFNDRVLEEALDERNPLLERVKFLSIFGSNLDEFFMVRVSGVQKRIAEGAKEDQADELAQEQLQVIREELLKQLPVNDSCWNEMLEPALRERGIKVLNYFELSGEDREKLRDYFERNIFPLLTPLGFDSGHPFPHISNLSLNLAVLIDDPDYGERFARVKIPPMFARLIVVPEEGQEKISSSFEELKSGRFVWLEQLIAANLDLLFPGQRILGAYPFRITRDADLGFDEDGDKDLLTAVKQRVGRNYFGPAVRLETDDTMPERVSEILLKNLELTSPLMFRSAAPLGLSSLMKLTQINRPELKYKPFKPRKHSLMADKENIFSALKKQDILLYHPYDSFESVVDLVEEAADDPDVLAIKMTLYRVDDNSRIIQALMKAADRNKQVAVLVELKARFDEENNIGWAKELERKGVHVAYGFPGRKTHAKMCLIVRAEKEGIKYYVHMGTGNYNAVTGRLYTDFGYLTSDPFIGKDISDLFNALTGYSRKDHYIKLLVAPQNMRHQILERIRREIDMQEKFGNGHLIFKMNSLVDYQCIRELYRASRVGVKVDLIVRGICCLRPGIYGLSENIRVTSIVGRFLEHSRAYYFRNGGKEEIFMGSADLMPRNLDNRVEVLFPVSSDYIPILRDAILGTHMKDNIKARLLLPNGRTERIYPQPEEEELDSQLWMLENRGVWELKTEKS

Km: 1400 µM
SMILES: Nc1ncnc2c1ncn2[C@@H]1O[C@H](COP(=O)(O)OP(=O)(O)OP(=O)(O)O)[C@@H](O)[C@H]1O [ATP]
